Measured values taken from ChEMBL document CHEMBL4043281, “Development of a peptide-based inducer of protein degradation targeting NOTCH1” (Bioorg Med Chem Lett, 2017).
Active and inactive are the calls of the source. No cut-off for these calls is given here. Positions of bridges follow the written chain, without caps; N, C: chain ends. Non-standard residues stand in square brackets, D forms with d. Residues, ends and D or L forms follow the SMILES beside them. Dip = N[C@H](C(=O)O)C(c1ccccc1)c1ccccc1; Chg = N[C@H](C(=O)O)C1CCCCC1; S5 = C=CCCC[C@](C)(N)C(=O)O; NMeA = CN[C@@H](C)C(=O)O; AEEA = NCCOCCOCC(=O)O; βAla = NCCC(=O)O

How the values were obtained:
Homo sapiens [1] = species: Homo sapiens; experiment: Induction of IAP-mediated NOTCH1 protein degradation in human MOLT4 cells assessed as ratio of NOTCH1 to lamin protein level at 20 uM after 6 hrs by Western blot analysis (reference value: 100%); type: cell-based
Homo sapiens [2] = species: Homo sapiens; experiment: Induction of IAP-mediated NOTCH1 protein degradation in human MOLT4 cells assessed as ratio of NOTCH1 to lamin protein level at 50 uM after 6 hrs by Western blot analysis (reference value: 100%); type: cell-based
Homo sapiens [3] = species: Homo sapiens; experiment: Induction of IAP-mediated NOTCH1 protein degradation in human MOLT4 cells assessed as ratio of NOTCH1 to lamin protein level at 100 uM after 6 hrs by Western blot analysis (reference value: 100%); type: cell-based
MOLT-4 [4] = experiment: Induction of CSL protein degradation in human MOLT4 cells assessed as ratio of CSL to lamin protein level at 20 uM after 6 hrs by Western blot analysis (reference value: 100%); type: functional
MOLT-4 [5] = experiment: Induction of CSL protein degradation in human MOLT4 cells assessed as ratio of CSL to lamin protein level at 50 uM after 6 hrs by Western blot analysis (reference value: 100%); type: functional
MOLT-4 [6] = experiment: Induction of CSL protein degradation in human MOLT4 cells assessed as ratio of CSL to lamin protein level at 100 uM after 6 hrs by Western blot analysis (reference value: 100%); type: functional
MOLT-4 [7] = experiment: Cytotoxicity against human MOLT4 cells at >100 uM; type: cell-based
Homo sapiens [8] = species: Homo sapiens; experiment: Induction of IAP-mediated NOTCH1 protein degradation in human MOLT4 cells assessed as ratio of NOTCH1 to lamin protein level at 60 uM after 6 hrs by Western blot analysis (reference value: 100%); type: cell-based
Homo sapiens [9] = species: Homo sapiens; experiment: Induction of IAP-mediated NOTCH1 protein degradation in human MOLT4 cells assessed as ratio of NOTCH1 to lamin protein level at 70 uM after 6 hrs by Western blot analysis (reference value: 100%); type: cell-based
Homo sapiens [10] = species: Homo sapiens; experiment: Induction of IAP-mediated NOTCH1 protein degradation in human MOLT4 cells assessed as ratio of NOTCH1 to lamin protein level at 80 uM after 6 hrs by Western blot analysis (reference value: 100%); type: cell-based
MOLT-4 [11] = experiment: Induction of CSL protein degradation in human MOLT4 cells assessed as ratio of CSL to lamin protein level at 60 uM after 6 hrs by Western blot analysis (reference value: 100%); type: functional
MOLT-4 [12] = experiment: Induction of CSL protein degradation in human MOLT4 cells assessed as ratio of CSL to lamin protein level at 70 uM after 6 hrs by Western blot analysis (reference value: 100%); type: functional
MOLT-4 [13] = experiment: Induction of CSL protein degradation in human MOLT4 cells assessed as ratio of CSL to lamin protein level at 80 uM after 6 hrs by Western blot analysis (reference value: 100%); type: functional
Homo sapiens [14] = species: Homo sapiens; experiment: Antagonist activity IAP in human MOLT4 cells assessed as reduction in cIAP1 protein level at 50 to 80 uM after 6 hrs by Western blot analysis; type: cell-based

SMILES | Ratio (Homo sapiens [1]) [%] | Ratio (Homo sapiens [2]) [%] | Ratio (Homo sapiens [3]) [%] | Ratio (MOLT-4 [4]) [%] | Ratio (MOLT-4 [5]) | Ratio (MOLT-4 [6]) [%] | Activity (MOLT-4 [7]) | Ratio (Homo sapiens [8]) [%] | Ratio (Homo sapiens [9]) [%] | Ratio (Homo sapiens [10]) [%] | Ratio (MOLT-4 [11]) [%] | Ratio (MOLT-4 [12]) [%] | Ratio (MOLT-4 [13]) [%] | inhibition (Homo sapiens [14])
CC[C@H](C)[C@H](NC(=O)[C@H](CCCNC(=N)N)NC(=O)[C@H](CCCNC(=N)N)NC(=O)[C@H](CCCNC(=N)N)NC(=O)[C@H](CC(C)C)NC(=O)[C@H](CCCNC(=N)N)NC(=O)[C@H](CCC(=O)O)NC(=O)CCN)C(=O)N[C@@]1(C)CCC/C=C\CCC[C@@](C)(C(=O)N[C@@H](CCCNC(=N)N)C(=O)N[C@@H](Cc2cnc[nH]2)C(=O)N[C@@H](Cc2cnc[nH]2)C(=O)N[C@@H](CO)C(=O)N[C@H](C(=O)O)[C@@H](C)O)NC(=O)[C@H](CS)NC(=O)[C@H](CC(C)C)NC1=O (H-[βAla]ERLRRRI[S5]LC[S5]RHHST-OH; staple (Z) 9-12) | 101 | 105 | 103 | 105 | 94% | 93 | Toxic |  |  |  |  |  |  | 
CC[C@H](C)[C@H](NC(=O)[C@H](CCCNC(=N)N)NC(=O)[C@H](CCCNC(=N)N)NC(=O)[C@H](CCCNC(=N)N)NC(=O)[C@H](CC(C)C)NC(=O)[C@H](CCCNC(=N)N)NC(=O)[C@H](CCC(=O)O)NC(=O)CCNC(=O)COCCOCCNC(=O)[C@@H](NC(=O)[C@@H]1CCCN1C(=O)[C@@H](NC(=O)[C@H](C)NC)C1CCCCC1)C(c1ccccc1)c1ccccc1)C(=O)N[C@@]1(C)CCC/C=C\CCC[C@@](C)(C(=O)N[C@@H](CCCNC(=N)N)C(=O)N[C@@H](Cc2cnc[nH]2)C(=O)N[C@@H](Cc2cnc[nH]2)C(=O)N[C@@H](CO)C(=O)N[C@H](C(=O)O)[C@@H](C)O)NC(=O)[C@H](CS)NC(=O)[C@H](CC(C)C)NC1=O (H-[NMeA][Chg]P[Dip][AEEA][βAla]ERLRRRI[S5]LC[S5]RHHST-OH; staple (Z) 14-17) | 105 | 87 to 99 | 74 | 105 | 105 - 108% | 115 | Toxic | 106 | 99 | 77 | 104 | 115 | 102 | Active
